{
  "source": "patent US5672707A",
  "about": "(priority 1991, dated 1997)",
  "key": {"mice [1]": {"tested_on": "mice", "assay": "Psychotropic activity test: arecoline induced hyperkynesis", "assay_type": "in vivo", "conditions": "intraperitoneally, dose 1/20 of LD"}, "[2]": {"target": "T1, Acetylcholinesterase, enzyme from human erythrocytes (Homo sapiens, UniProt P22303)", "T1 construct": "on the enzyme from human erythrocytes; from tissue; host or cells: human erythrocytes", "T1 sequence (P22303-2 with tags, fused parts or gaps limits assumed)": "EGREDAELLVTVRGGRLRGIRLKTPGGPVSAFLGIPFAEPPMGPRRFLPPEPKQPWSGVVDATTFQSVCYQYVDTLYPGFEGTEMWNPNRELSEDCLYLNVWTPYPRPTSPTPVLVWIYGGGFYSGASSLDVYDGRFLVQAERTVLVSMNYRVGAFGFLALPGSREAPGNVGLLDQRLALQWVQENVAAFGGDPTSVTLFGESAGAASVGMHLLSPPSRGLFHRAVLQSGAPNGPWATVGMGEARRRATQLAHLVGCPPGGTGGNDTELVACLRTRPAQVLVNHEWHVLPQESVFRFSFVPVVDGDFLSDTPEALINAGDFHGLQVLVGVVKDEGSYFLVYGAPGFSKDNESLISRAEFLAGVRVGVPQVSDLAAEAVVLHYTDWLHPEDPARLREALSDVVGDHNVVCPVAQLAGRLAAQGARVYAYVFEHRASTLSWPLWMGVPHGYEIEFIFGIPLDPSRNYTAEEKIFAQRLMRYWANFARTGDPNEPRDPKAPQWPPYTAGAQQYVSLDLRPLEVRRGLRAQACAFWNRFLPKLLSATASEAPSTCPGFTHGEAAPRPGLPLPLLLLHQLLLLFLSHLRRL", "assay": "Acetylcholinesterase inhibition, spectrophotometric technique of Ellman", "assay_type": "biochemical", "conditions": "for IC50: Acetylcholinesterase inhibition IC50 (M)", "experimental": "Acetylcholinesterase inhibition under the action of preparations was assessed by the spectrophotometric technique of Ellman on the enzyme from human erythrocytes."}, "mice [3]": {"tested_on": "mice", "assay": "Psychotropic activity test: motor activity", "assay_type": "in vivo", "conditions": "intraperitoneally, dose 1/20 of LD"}, "K channels": {"tested_on": "K channels", "assay": "Ionic permeabilities of excitable membranes, voltage clamp in the Ranvier node", "assay_type": "cell-based, frog"}, "rats": {"tested_on": "rats", "assay": "Passive avoidance test in normal rats, 50% acquisition", "assay_type": "in vivo", "conditions": "for Increase of the number of correct trails (% to control). Passive avoidance test (rats) / change in vivo at 0.1 mg/kg: 0.1 mg/kg i.p. 20 min before training, piracetam 250 mg/kg 60 min before training, rats; for change in vivo at 0.1 mg/kg: Rattus norvegicus, ip, 20 min, read-out: Increase of the number of correct trails (% to control). Passive avoidance test (rats)", "experimental": "(§1) Psychoneurotropic activity of the declared compounds and their influence on learning and memory were observed using unbred male (18-20 g) mice and 180-200 g) rats, held at standard conditions (room temperature 21°-22° C., 12-hours lighting schedule, food and water ad libitum).\nThe influence of drugs on reflex conditioning in rats was studied by the passive avoidance test in conditions of 50% acquisition. The effect of the compound was estimated by the increase of the relative number of learned animals with respect to that of control group. […] The other reference drug--noothropic agent piracetam--was given in the dose 250 mg/kg 60 min before training. Amnestic syndrome was stimulated by 20 days application of Sc at the daily dose of 1 mg/kg intraperitoneally. […] The passive avoidance test was performed within 24 hours after the last application of test preparations."}, "mice [4]": {"tested_on": "mice", "assay": "Step-down test, scopolamine induced amnesia", "assay_type": "in vivo", "experimental": "as §1"}, "in vivo": {"assay": "in vivo", "conditions": "intraperitoneal injection, Table 5; for LD50: in vivo, ip, read-out: LD50 (mg/kg) by Kerber", "experimental": "as §1\nAcute toxicity was studied by the method of Kerber with intra peritoneal drug injection."}, "rat adipocytes [5]": {"tested_on": "rat adipocytes", "assay": "Lipid content in incubation medium after incubation of adipocytes", "assay_type": "cell-based", "conditions": "incubation medium; Table 12", "experimental": "(§2) Lipid regulative activity of the declared compounds--derivatives of 9-amino acridine--were evaluated in vitro[…] using rat adipocytes. Adipocytes were separated from adipose tissue of testis appendages of adult male rats. Lipid composition analysis was performed by the method of thin-layer chromatography.\n(§3) Quantitative analysis of phospholipids (PL), mono- and diacylglycerides (MDG), triacylglycerides (TG), free fatty acids (FFA), free cholesterol (FCL), and methyl esters of fatty acids (MEFA) was performed by the method of spectrophotometry."}, "rat adipocytes [6]": {"tested_on": "rat adipocytes", "assay": "Lipid composition of adipocytes after incubation with compounds", "assay_type": "cell-based", "conditions": "for FFA/TG in adipocytes / PL/CL in adipocytes / PL/TG in adipocytes: cells, Table 11; for FFAc/FFAm / PLc/PLm: distribution between cells and incubation medium, Table 13", "experimental": "as §2, §3"}, "[7]": {"conditions": "enzyme from human erythrocytes, Table 5"}},
  "data": [
    {"smiles": "Cc1ccc(CNc2c3c(nc4ccccc24)CC(C)(C)CC3O)c(C)c1", "note": "(stereo not drawn) [VIi]", "values": [
      {"measurement": "Increase of duration of arecoline induced hyperkynesis (% to control)", "setting": "mice [1]", "result": "46 % to control"},
      {"measurement": "IC50", "setting": "[2]; [7]", "result": "1e-06", "unit": "M"},
      {"measurement": "Motor activity increment (% to control)", "setting": "mice [3]", "result": "13 % to control"},
      {"measurement": "The shift of activation region of K channels: substance lowest concentrations in M producing measureable shift of 1-2 mV", "setting": "K channels", "result": "no effect"},
      {"measurement": "Increase of the number of correct trails (% to control). Passive avoidance test (rats)", "setting": "rats", "result": "15 % to control"},
      {"measurement": "Antiamnestic activity in Step-down test (% of mice with latency > cut off)", "setting": "mice [4]", "result": "0 % of mice"},
      {"measurement": "LD50 (mg/kg) by Kerber", "setting": "in vivo", "result": "75.0 ± 1.2", "unit": "mg/kg"}
    ]},
    {"smiles": "Cc1ccc(CNc2c3c(nc4ccccc24)CC(C)(C)CC3=O)c(C)c1", "note": "[Vd]", "values": [
      {"measurement": "Increase of duration of arecoline induced hyperkynesis (% to control)", "setting": "mice [1]", "result": "0 % to control"},
      {"measurement": "IC50", "setting": "[2]; [7]", "result": "1e-05", "unit": "M"},
      {"measurement": "Motor activity increment (% to control)", "setting": "mice [3]", "result": "90 % to control"},
      {"measurement": "change in vivo at 0.1 mg/kg", "setting": "rats", "result": 50, "unit": "%"},
      {"measurement": "Performance of normal rats in passive avoidance test", "setting": "rats; normal rats", "result": "statistically significantly improved performance of normal rats"},
      {"measurement": "Improving learning and memory compared with amiridine and piracetam", "setting": "rats; normal rats, passive avoidance test", "result": "as effective in improving learning and memory as amiridine and piracetam"},
      {"measurement": "Antiamnestic activity in Step-down test (% of mice with latency > cut off)", "setting": "mice [4]", "result": "20 % of mice"},
      {"measurement": "LD50", "setting": "in vivo", "result": "> 1000", "unit": "mg/kg"}
    ]},
    {"smiles": "CC1(C)C=Cc2c(nc3ccccc3c2NCc2ccccc2)C1", "note": "[VIIj]", "values": [
      {"measurement": "FFA/TG in incubation medium", "setting": "rat adipocytes [5]", "result": 1.07},
      {"measurement": "PL/CL in incubation medium", "setting": "rat adipocytes [5]", "result": 0.89},
      {"measurement": "PL/TG in incubation medium", "setting": "rat adipocytes [5]", "result": 0.81},
      {"measurement": "FFA/TG in adipocytes", "setting": "rat adipocytes [6]", "result": 1.00},
      {"measurement": "PL/CL in adipocytes", "setting": "rat adipocytes [6]", "result": 0.83},
      {"measurement": "PL/TG in adipocytes", "setting": "rat adipocytes [6]", "result": 0.86},
      {"measurement": "FFAc/FFAm", "setting": "rat adipocytes [6]", "result": 0.93},
      {"measurement": "PLc/PLm", "setting": "rat adipocytes [6]", "result": 1.08}
    ]},
    {"smiles": "CC1(C)C=Cc2c(nc3ccccc3c2NCc2ccccc2)C1", "note": "[VIIk]", "values": [
      {"measurement": "Increase of duration of arecoline induced hyperkynesis (% to control)", "setting": "mice [1]", "result": "20 % to control"},
      {"measurement": "Motor activity increment (% to control)", "setting": "mice [3]", "result": "20 % to control"},
      {"measurement": "FFA/TG in incubation medium", "setting": "rat adipocytes [5]", "result": 1.10},
      {"measurement": "PL/CL in incubation medium", "setting": "rat adipocytes [5]", "result": 0.96},
      {"measurement": "PL/TG in incubation medium", "setting": "rat adipocytes [5]", "result": 0.84},
      {"measurement": "Increase of the number of correct trails (% to control). Passive avoidance test (rats)", "setting": "rats", "result": "25 % to control"},
      {"measurement": "FFA/TG in adipocytes", "setting": "rat adipocytes [6]", "result": 0.93},
      {"measurement": "PL/CL in adipocytes", "setting": "rat adipocytes [6]", "result": 0.61},
      {"measurement": "PL/TG in adipocytes", "setting": "rat adipocytes [6]", "result": 0.58},
      {"measurement": "FFAc/FFAm", "setting": "rat adipocytes [6]", "result": 0.95},
      {"measurement": "PLc/PLm", "setting": "rat adipocytes [6]", "result": 0.78},
      {"measurement": "LD50 (mg/kg) by Kerber", "setting": "in vivo", "result": "90.5 ± 8.", "unit": "mg/kg"}
    ]},
    {"smiles": "CC1(C)CC(=O)c2c(nc3ccccc3c2N)C1", "note": "[IVb]", "values": [
      {"measurement": "Increase of duration of arecoline induced hyperkynesis (% to control)", "setting": "mice [1]", "result": "33 % to control"},
      {"measurement": "IC50", "setting": "[2]; [7]", "result": "3.5e-06", "unit": "M"},
      {"measurement": "Motor activity increment (% to control)", "setting": "mice [3]", "result": "0 % to control"},
      {"measurement": "The shift of activation region of K channels: substance lowest concentrations in M producing measureable shift of 1-2 mV", "setting": "K channels", "result": "no effect"},
      {"measurement": "Block of K-channels IC (M)", "setting": "K channels; Ranvier node of the frog, voltage clamp", "result": "no effect"},
      {"measurement": "change in vivo at 0.1 mg/kg", "setting": "rats", "result": 30, "unit": "%"},
      {"measurement": "Antiamnestic activity in Step-down test (% of mice with latency > cut off)", "setting": "mice [4]", "result": "0 % of mice"},
      {"measurement": "LD50", "setting": "in vivo", "result": "70 ± 4.3", "unit": "mg/kg"}
    ]},
    {"smiles": "CC1(C)C=Cc2c(nc3ccccc3c2NCc2ccccc2)C1", "note": "[VIIl]", "values": [
      {"measurement": "Increase of duration of arecoline induced hyperkynesis (% to control)", "setting": "mice [1]", "result": "15 % to control"},
      {"measurement": "Motor activity increment (% to control)", "setting": "mice [3]", "result": "10 % to control"},
      {"measurement": "FFA/TG in incubation medium", "setting": "rat adipocytes [5]", "result": 1.00},
      {"measurement": "PL/CL in incubation medium", "setting": "rat adipocytes [5]", "result": 0.91},
      {"measurement": "PL/TG in incubation medium", "setting": "rat adipocytes [5]", "result": 0.77},
      {"measurement": "Increase of the number of correct trails (% to control). Passive avoidance test (rats)", "setting": "rats", "result": "40 % to control"},
      {"measurement": "FFA/TG in adipocytes", "setting": "rat adipocytes [6]", "result": 1.00},
      {"measurement": "PL/CL in adipocytes", "setting": "rat adipocytes [6]", "result": 0.75},
      {"measurement": "PL/TG in adipocytes", "setting": "rat adipocytes [6]", "result": 0.78},
      {"measurement": "FFAc/FFAm", "setting": "rat adipocytes [6]", "result": 0.96},
      {"measurement": "PLc/PLm", "setting": "rat adipocytes [6]", "result": 0.97},
      {"measurement": "LD50 (mg/kg) by Kerber", "setting": "in vivo", "result": "116.7 ± 10.9", "unit": "mg/kg"}
    ]},
    {"smiles": "CC1(C)Cc2nc3ccccc3c(N)c2C(O)C1", "note": "(stereo not drawn) [VIb]", "values": [
      {"measurement": "Increase of duration of arecoline induced hyperkynesis (% to control)", "setting": "mice [1]", "result": "66 % to control"},
      {"measurement": "IC50", "setting": "[2]; [7]", "result": "1.2e-06", "unit": "M"},
      {"measurement": "Motor activity increment (% to control)", "setting": "mice [3]", "result": "40 % to control"},
      {"measurement": "change in vivo at 0.1 mg/kg", "setting": "rats", "result": 20, "unit": "%"},
      {"measurement": "Antiamnestic activity in Step-down test (% of mice with latency > cut off)", "setting": "mice [4]", "result": "0 % of mice"},
      {"measurement": "LD50", "setting": "in vivo", "result": "63.3 ± 8.8", "unit": "mg/kg"}
    ]},
    {"smiles": "CC1(C)CC(=O)c2c(nc3ccccc3c2NCc2ccccc2)C1", "note": "[Vb]", "values": [
      {"measurement": "Increase of duration of arecoline induced hyperkynesis (% to control)", "setting": "mice [1]", "result": "15 % to control"},
      {"measurement": "AChE inhibition IC (M)", "setting": "[2]; Table 6", "result": "no effect"},
      {"measurement": "Acetylcholinesterase inhibition IC50 (M)", "setting": "[2]; [7]", "result": "no effect"},
      {"measurement": "Motor activity increment (% to control)", "setting": "mice [3]", "result": "80 % to control"},
      {"measurement": "The shift of activation region of K channels: substance lowest concentrations in M producing measureable shift of 1-2 mV", "setting": "K channels", "result": "no effect"},
      {"measurement": "change in vivo at 0.1 mg/kg", "setting": "rats", "result": 25, "unit": "%"},
      {"measurement": "Antiamnestic activity in Step-down test (% of mice with latency > cut off)", "setting": "mice [4]", "result": "0 % of mice"},
      {"measurement": "LD50", "setting": "in vivo", "result": "735 ± 21.8", "unit": "mg/kg"}
    ]}
  ]
}
